Reference: patent publication US10106828B2, “Cell culture medium and process for protein expression, said medium and process comprising a PAM inhibitor” (SANDOZ GMBH, priority 2010, dated 2018)

What was measured:
[1] = tested on: CHO cells; assay: Influence of PAM inhibitors on proline amide formation on a monoclonal antibody (chimeric IgG) expressed in CHO cells, CEX-CPB analysis / peptide mapping; assay type: cell-based, Chinese hamster; settings: FIG. 1; for amount of pseudo 1K (proline amide) in CEX-CPB: monoclonal antibody (chimeric IgG), control without inhibitor app. 10%
Text: The amount of proline amide can be identified and quantified by various analytical methods, by distinguishing the amidated variant from the non-amidated one by physico-chemical differences such as charge, hydrophobicity or mass. The most common method is ion exchange chromatography, as the CEX-CPB method (cation exchange chromatography after digestion by carboxypeptidase B), exploiting the charge alteration due to proline amidation.
(§1) For antibodies, co-elution of proline amide variants with lysine variants is avoided by removal of lysine residues using carboxypeptidase B digestion prior to chromatographic separation. Additional co-elution with other basic variants, however, can result in a quantification background of several percent (e.g. 4%). Proline amide variants plus background are termed “Pseudo 1K” for eluting at the chromatographic position of the antibody variant with one C-terminal lysine residue. “Pseudo 2K” encompasses the proline variants plus background eluting at the chromatographic position of the antibody variant with two C-terminal lysine residue. The difference to the CEX method (i.e. CEX without lysine removal by CPB digestion) is indicating the amount of antibody variants with lysine residues, termed “Real 1K” and “Real 2K”. The quantification by CEX(-CPB) returns the percentage of proline amidated antibodies relative to all antibody molecules in a solution. An analytical test method which unambiguously can identify and quantify amidated proline variants is RP-HPLC (reversed-phase high-performance-liquid-chromatography) of endopeptidase (e.g. LysC, Trypsin) digested protein, so called peptide mapping, using UV (ultraviolet) or MS (mass-spec) detection. The quantification by RP-HPLC peptide mapping returns for an antibody the percentage of proline amidated heavy chains relative to all heavy chains.
“Pseudo 1K” is the variant determined by CEX-CPB where one of the two heavy chains of an antibody (IgG) has a proline amide at its C-terminus. “Pseudo 2K” is the variant determined by CEX-CPB where both heavy chains of a monoclonal antibody have a proline amide at their C-termini.
In their experiments, the inventors focused on published PAM inhibitors as potential medium components. Among the screened components are, i.e., sodium sulfite, tiopronin, captopril, EDTA, ammonium sulfite, L-histidine, D-histidine, ammonium meta thiomolybdate, L-carnosine, penicillamine, 4-phenyl-3 butenoic acid (PBA). […]
FIG. 1: Influence of PAM inhibitors on proline amide (PA) formation, quantified as ‘pseudo 1K’ in CEX-CPB analysis, on a monoclonal antibody (chimeric IgG) expressed in CHO cells. […]

[2] = tested on: CHO cells; assay: Influence of PBA on proline amide formation on an Fc-fusion protein expressed in CHO cells, quantified by peptide mapping; assay type: cell-based, Chinese hamster; settings: for proline amide (% per heavy chain): without PBA >4%
Text: as §1
Two recombinant proteins were used to investigate the effect of PAM inhibitors on amino acid amidation/proline amid formation, i.e., a monoclonal antibody (human-mouse-chimeric IgG), and an Fc-fusion protein. CHO cells were used as expression system.
FIG. 2: Influence of PAM inhibitor PBA on proline amide formation on an Fc-fusion protein expressed in CHO cells, as quantified by peptide mapping. Supplementing the cultures of recombinant CHO cells with various concentrations of PBA up to 100 μM decreased the amount of proline amide (% per heavy chain) in a dose-dependent effect curve from app. 2% (no PBA) to app. 0.1% (100 μM PBA).
FIG. 3: Influence of PAM inhibitor PBA on proline amide formation on an Fc-fusion protein expressed in CHO cells, as quantified by peptide mapping.

O=C(O)CC=Cc1ccccc1 [PBA, 4-phenyl-3-butenoic acid]
amount of pseudo 1K (proline amide) in CEX-CPB ([1]; 10 μM in cell culture medium): ~8%
amount of pseudo 1K (proline amide) in CEX-CPB ([1]; 100 μM in cell culture medium): ~5%
proline amide per heavy chain, peptide mapping ([1]; corresponds to 5% pseudo 1K in CEX-CPB (100 μM), monoclonal antibody): 0-2%
effect on proline amide formation compared with other screened PAM inhibitors ([1]; supplemented to the cell culture): strongest effect
amount of proline amide (% per heavy chain) ([2]; FIG. 2, 100 μM PBA, no PBA app. 2%): ~0.1%
effect curve of proline amide decrease ([2]; FIG. 2, various concentrations up to 100 μM): dose-dependent
proline amide (% per heavy chain) ([2]; FIG. 3, 50 μM PBA): < 1%
proline amide (% per heavy chain) ([2]; FIG. 3, 100 μM PBA): < 0.5%
